In ChEMBL document CHEMBL1130103, “Doxoform and Daunoform: anthracycline-formaldehyde conjugates toxic to resistant tumor cells” (J Med Chem, 1997):

Experiments:
[1] = test system: MCF7; experiment: compound was tested in vitro for inhibition activity against a sensitive human breast carcinoma line cells.; type: functional, cell-based
[2] = test system: NCI/ADR-RES; experiment: compound was tested in vitro for inhibition activity against doxorubicin resistant counterpart of human breast carcinoma line cells.; type: functional, cell-based

| SMILES | IC50 [1] | IC50 [2] |
| --- | --- | --- |
| COc1cccc2c1C(=O)c1c(O)c3c(c(O)c1C2=O)C[C@@](O)(C(C)=O)C[C@@H]3O[C@H]1C[C@H](N)[C@H](O)[C@H](C)O1 [DAUNORUBICIN] | 60 nM equiv l-1 | 2000 nM equiv l-1 |
| COc1cccc2c1C(=O)c1c(O)c3c(c(O)c1C2=O)C[C@@](O)(C(=O)CO)C[C@@H]3O[C@H]1C[C@H](N)[C@H](O)[C@H](C)O1 [DOXORUBICIN] | 300 nM equiv l-1 | 10000 nM equiv l-1 |
| COc1cccc2c1C(=O)c1c(O)c3c(c(O)c1C2=O)C[C@@](O)(C(=O)CO)C[C@@H]3OC1CC2C(OCN2CN2COC3C(C)OC(O[C@H]4C[C@](O)(C(=O)CO)Cc5c(O)c6c(c(O)c54)C(=O)c4c(OC)cccc4C6=O)CC32)C(C)O1 (stereo partly drawn) [DOXOFORM] | 2 nM equiv l-1 | 1 nM equiv l-1 |
| COc1cccc2c1C(=O)c1c(O)c3c(c(O)c1C2=O)C[C@@](O)(C(C)=O)C[C@@H]3OC1CC2C(OCN2CN2COC3C(C)OC(O[C@H]4C[C@](O)(C(C)=O)Cc5c(O)c6c(c(O)c54)C(=O)c4c(OC)cccc4C6=O)CC32)C(C)O1 (stereo partly drawn) [DAUNOFORM] | 8 nM equiv l-1 | 10 nM equiv l-1 |
